Laboratory results as given in article PMC10809370, “Dye-Decolorizing Peroxidase of Streptomyces coelicolor (ScDyPB) Exists as a Dynamic Mixture of Kinetically Different Oligomers” (ACS Omega, 2024).
Values belong to the molecule of their own block, whether it stands above or below them.

What was measured:
[1] = target: T1, Dye-decolorizing peroxidase ScDyPB (Streptomyces coelicolor, UniProt Q9FBY9); experiment: biochemical
T1 construct: gene SCO7193
T1 sequence (Q9FBY9 1-316): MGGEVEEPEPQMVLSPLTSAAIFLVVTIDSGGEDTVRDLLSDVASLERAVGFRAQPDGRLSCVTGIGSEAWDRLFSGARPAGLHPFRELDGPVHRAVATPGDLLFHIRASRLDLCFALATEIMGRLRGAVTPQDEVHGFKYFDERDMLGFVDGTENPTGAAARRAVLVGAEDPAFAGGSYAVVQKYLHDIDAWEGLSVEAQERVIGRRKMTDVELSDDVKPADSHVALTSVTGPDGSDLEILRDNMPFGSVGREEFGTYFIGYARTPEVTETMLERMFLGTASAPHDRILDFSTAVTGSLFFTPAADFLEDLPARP

[2] = target: T1, Dye-decolorizing peroxidase ScDyPB; experiment: initial rates of MHQ oxidation to methylquinone at […] nm, purified enzyme; format: biochemical
[3] = target: T1, Dye-decolorizing peroxidase ScDyPB; experiment: dye oxidation rate at […] nm, […] dye, […] H2O2; format: biochemical
[4] = target: T1, Dye-decolorizing peroxidase ScDyPB; experiment: dye oxidation rate at […] nm, […] dye, […] H2O2; format: biochemical; remark: listed apart in the source
purified protein = substrate: OO; experiment: purified protein; settings: heme heme in its resting state
[5] = target: the molecule itself; experiment: SEC; Superdex 75 Increase 10/300 GL, 20 mM Tris-HCl, 0.1 M NaCl, pH 7.5; 100 uL of 18.1 uM ScDyPB injected; calibrated with standard proteins; apparent molecular weights

- Ki [1]: 4.12 ± 0.36 µM
Molecule: CCn1c(=NN=c2sc3cc(S(=O)(=O)O)ccc3n2CC)sc2cc(S(=O)(=O)O)ccc21 [ABTS, 2,2′-azino-di(3-ethyl-benzothiazoline-6-sulfonic acid)]

Molecule: Cc1cc(O)ccc1O [MHQ, methylhydroquinone]
- initial rates of MHQ oxidation to methylquinone at 251 nm, purified enzyme [2]: the rate of the oxidation of both ABTS and MHQ scaled linearly with the concentration of the ScDyPB in the cuvette

Molecule: Nc1c(S(=O)(=O)O)cc(Nc2ccc(S(=O)(=O)O)c(Nc3nc(Cl)nc(Cl)n3)c2)c2c1C(=O)c1ccccc1C2=O [RB4, reactive blue 4]
- dye oxidation rate at 610 nm, 0.1 mM dye, 1.0 mM H2O2 [3]: 0.66 ± 0.04 s^–1

- dye oxidation rate at 595 nm, 0.1 mM dye, 1.0 mM H2O2 [4]: 0.58 ± 0.02 s^–1
Molecule: Nc1c(S(=O)(=O)O)cc(Nc2cccc(S(=O)(=O)CCOS(=O)(=O)O)c2)c2c1C(=O)c1ccccc1C2=O [RB19, reactive blue 19]

B1: Dye-decolorizing peroxidase from S. coelicolor A3(2) (ScDyPB) (enzyme, Streptomyces coelicolor A3(2))
chain: T1 sequence (Q9FBY9 1-316)
notes: Dye-decolorizing peroxidase ScDyPB, Streptomyces coelicolor A3(2), UniProtKB Q9FBY9; molecular weight printed as 34 kDa; Heme protein, reconstituted with hemin; also called type B dye-decolorizing peroxidase of Streptomyces coelicolor; subfamily B DyP; source: E. coli BL21 (DE3), purified, reconstituted with hemin
- Km (purified protein): 890 ± 60 µM
- stoichiometry N [5]: 3
